Source: US11357748B2, “Methods for treating mendelian disorders of the epigenetic machinery” (THE JOHNS HOPKINS UNIVERSITY, priority 2014, dated 2022)
Entries after “also recorded” stand apart in the source; their conditions may differ. Read-outs that look alike come from different tables or passages of the source.

Assays:
[1] = test system: H3K4 trimethylation activity in Kmt2d+/βGeo MEFs; assay: H3K4me3 indicator in murine embryonic fibroblasts (MEFs) from Kmt2d+/βGeo and Kmt2d+/+ mice; type: cell-based, mouse; conditions: Kmt2d+/βGeo MEFs; FIG. 18H, 22A, 23
Text: An H3K4 trimethylation reporter was also created (FIG. 5B). This reporter is based on the H3 tail on one end and the TBP associated factor III (TAFIII) […] on the other end; the TAFIII […] only identifies and binds to trimethylated K4 on H3. When the H3K4 site gets trimethylated, the TAFIII […] can bind to the modified H3 tail and bring the two parts of the separated GFP in close proximity. The activity of the epigenetic modification system can be quantified through fluorescence.
Epigenetic reporter alleles were synthesized (OriGene, Rockville, Md.) using published sequences for component elements (Baird et al. (1999) Proc. Natl. Acad. Sci. 96:11241-6; Souslova et al. (2007) BMC Biotechnol. 7:37). Single nucleotide mutations were created using the QuickChange Lightening kit (Agilent Technologies Inc, Santa Clara, Calif.). For H4ac indicator, K5R, K8R, K12R, K16R and K20R (MUT indicator) were introduced. For H3K4me3 indicator, K4Q and D890A/W891A and M882A (three separate constructs) were introduced. […] FACS data were analyzed using FlowJo (Tree Star Inc, Ashland, Oreg.). […]
Epigenetic reporter systems were created that monitor either H4 acetylation or H3K4 trimethylation machinery activity in an effort to determine whether there is an ongoing activity deficiency in cells from Kmt2d^+/βGeo mice (FIG. 18A). Both reporter alleles encode halves of green fluorescent protein separated by a flexible linker region (Baird et al. (1999) Proc. Natl. Acad. Sci. 96: 11241-6) with a histone tail and a histone reader at the N- and C-termini, respectively. When the histone tail corresponding to either H4 or H3 is modified by acetylation or methylation, respectively, GFP structure and function are reconstituted, as detected by a fluorescent readout (FIG. 18B). The acetyl reporter protein quantifies the activity of the acetylation machinery (acetylation of H4 specifically at sites K5, K8, K12, and K16) and comprises an H4 tail (residues 1-30) on one end and a TATA binding protein (TBP)-associated factor II (TAFII) bromodomain on the other end (FIG. 18A). […]

[2] = test system: H4 acetylation machinery (H4ac indicator); assay: H4 acetylation (H4ac) indicator reporter allele, GFP fluorescence by FACS in stably transfected T293/HEK293 cells; type: cell-based; conditions: FIG. 18C, 18D, 19A, 19B, 20
Text: The acetyl reporter protein quantifies the activity of the acetylation machinery (acetylation of H4 specifically at the 5th, 8th, 12th and 16th Lysine's) and comprises an H4 tail on one end (the target for acetylation) and a TBP associated factor II (TAFII) bromodomain on the other end of the reporter protein (FIG. 5A). The TAFII bromodomain only recognizes and binds to the acetylated H4 tail, resulting in reconstitution of GFP structure and function (i.e. fluorescence). Therefore, the reporter protein has no fluorescence unless it is acetylated by the acetylation system of the nucleus of the cell.
Epigenetic reporter alleles were synthesized (OriGene, Rockville, Md.) using published sequences for component elements (Baird et al. (1999) Proc. Natl. Acad. Sci. 96:11241-6; Souslova et al. (2007) BMC Biotechnol. 7:37). […] FACS data were analyzed using FlowJo (Tree Star Inc, Ashland, Oreg.). […]
Epigenetic reporter systems were created that monitor either H4 acetylation or H3K4 trimethylation machinery activity in an effort to determine whether there is an ongoing activity deficiency in cells from Kmt2d^+/βGeo mice (FIG. 18A). Both reporter alleles encode halves of green fluorescent protein separated by a flexible linker region (Baird et al. (1999) Proc. Natl. Acad. Sci. 96: 11241-6) with a histone tail and a histone reader at the N- and C-termini, respectively. […]

[3] = test system: mouse models of Rubinstein-Taybi syndrome; conditions: cited from earlier work
HDAC = conditions: Phiel et al. (2001); cited from earlier work

With `Nc1ccccc1NC(=O)c1ccc(CNC(=O)OCc2cccnc2)cc1` [MS275, Pyridin-3-ylmethyl N-[[4-[(2-aminophenyl)carbamoyl]phenyl]methyl]carbamate] the “H3K4 trimethylation activity in Kmt2d+/βGeo cells upon treatment” value [1] was “enhanced; also recorded: improved”.
For `O=C(CCCCCCC(=O)Nc1ccccc1)NO` [SAHA, N′-hydroxy-N-phenyl-octanediamide], the “H4ac indicator fluorescence response to increasing amounts of drug” value [2] is listed as “linear fluorescence response; also recorded: increasing fluorescence; also recorded: increases acetylation of the indicator; also recorded: increased signal” and the “neurological phenotypes in Rubinstein-Taybi mouse models” value ([3]; intracerebroventricular administration) is listed as “respond”.
In the case of `CC(C=CC(=O)NO)=CC(C)C(=O)c1ccc(N(C)C)cc1` (centres unmarked) [trichostatin A, 7-[4-(dimethylamino)phenyl]-N-hydroxy-4,6-dimethyl-7-oxohepta-2,4-dienamide], the “neurological phenotypes in Rubinstein-Taybi mouse models” value ([3]; intraperitoneal administration) is listed as “respond”.
In the case of `CCCC(CCC)C(=O)O` [valproic acid, 2-Propylpentanoic acid], the HDAC inhibitor activity (HDAC) is given as “potent HDACi”.
